Data published in patent US20250057890A1, “FUNCTIONAL FOOD CONTAINING BONITO-DERIVED EXTRACT FOR PREVENTING OR AMELIORATING NEUROPSYCHIATRIC DISORDERS” (MARUHACHI MURAMATSU, INC., priority 2022, published 2025).

Assays:
[1] = system: MG6 cells from mouse brain microglia; test: Anti-inflammatory action: TNF-α production in LPS-activated MG6 cells (ELISA); format: cell-based; settings: for anti-inflammatory activity: MG6 cells, LPS, fractions or single components; for anti-inflammatory action compared to katsuobushi extract: known components of katsuobushi, each in isolation
Procedure: MG6 cells from mouse brain microglia were purchased from the RIKEN BioResource Research Center (BRC), and the anti-inflammatory action of various extracts, including from katsuobushi, were assayed (see FIG. 1). First, a 96-well plate was seeded with the MG6 cells (5×10^3 cells/well·90 μL), and a culture was started in a CO2 incubator (37° C., CO2 level 5%). Next the various extracts were added to the wells after 0.5 hours, followed by the addition of lipopolysaccharide (LPS) 1 hour after that to activate the MG6 cells and induce an inflammatory state. After 6 hours, 10 μL of culture supernatant was collected from each well, after which 10 μL of a viable cell counting reagent (WST-8) was added to each well, and absorbance at 450 nm (reference wavelength 630 nm) was measured with a plate reader after 1 hour and 2 hours.
The previously collected culture supernatant was diluted 25-fold with a buffer, and the levels of TNF-α, a type of inflammatory cytokine, produced in the culture supernatant was measured via ELISA (using ELISA MAX™ Deluxe Set Mouth TNF-α, a kit manufactured by BioLegend). In the LPS addition test section, anti-inflammatory action was determined to be higher when the TNF-α production levels were more reduced through the prior addition of the various extracts, and lower the less said levels were reduced.

[2] = system: rat brain capillary endothelial cells (RBECs, primary cells); test: Protein expression of tight-junction-associated molecules (claudin-5 and occludin) in RBECs, western blot; format: cell-based
Procedure: First, a 48-well plate was seeded with the RBECs (2×10^5 cells/well·440 μL), and a culture was started in a CO2 incubator (37° C., CO2 level 5%). Next, after 72 hours, the medium in each well was replaced with an evaluation medium prepared by adding the various extracts, and, 24 hours and 72 hours after that, RNA and protein were recovered from the cultured cells a NucleoSpin RNA/Protein kit (Takara Bio) according to the protocol of the kit. The extracted protein was evaluated via western blot, and DNA obtained by reverse transcription of the extracted RNA was evaluated via real-time PCR.
(§1) First, a 48-well plate was seeded with the RBECs (2×10^5 cells/well·440 μL), and a culture was started in a CO2 incubator (37° C., CO2 level 5%). […] The extracted protein was evaluated via western blot, and DNA obtained by reverse transcription of the extracted RNA was evaluated via real-time PCR (real-time PCR data not shown here).
as §1

[3] = system: microglia in the hippocampus; settings: Liang et al., International Journal of Neuroscience, 2022; cited from earlier work

Nc1ncnc2c1ncn2[C@@H]1O[C@H](COP(=O)(O)O)[C@@H](O)[C@H]1O [AMP, adenosine 5′-monophosphate]
anti-inflammatory activity [1]: anti-inflammatory activity was observed

Cn1cncc1C[C@H](NC(=O)CCN)C(=O)O [anserine]
anti-inflammatory action compared to katsuobushi extract [1]: none of these substances in isolation showed anti-inflammatory action comparable to katsuobushi extract

C[N+](C)(C)CC(=O)O [betaine]
anti-inflammatory action compared to katsuobushi extract [1]: none of these substances in isolation showed anti-inflammatory action comparable to katsuobushi extract

NCCC(=O)N[C@@H](Cc1cnc[nH]1)C(=O)O [carnosine]
anti-inflammatory action compared to katsuobushi extract [1]: none of these substances in isolation showed anti-inflammatory action comparable to katsuobushi extract

CN(CC(=O)O)C(=N)N [creatine]
anti-inflammatory action compared to katsuobushi extract [1]: none of these substances in isolation showed anti-inflammatory action comparable to katsuobushi extract

O=C(O)CO [glycolic acid]
anti-inflammatory activity [1]: showed anti-inflammatory activity

N[C@@H](Cc1c[nH]cn1)C(=O)O [histidine]
anti-inflammatory action compared to katsuobushi extract [1]: none of these substances in isolation showed anti-inflammatory action comparable to katsuobushi extract | claudin-5 protein expression ([2]; added concentration 0.836 mg/ml, after 24 hours, compared to serum-free medium): elevated | expression of tight-junction-associated molecules (claudin-5 and occludin) at the genetic level and the protein level ([2]; rat cerebrovascular endothelial cells): elevated expression

O=c1[nH]cnc2nc[nH]c12 [hypoxanthine]
anti-inflammatory activity [1]: anti-inflammatory activity was observed

CC(O)C(=O)O (centres unmarked) [lactic acid]
anti-inflammatory activity [1]: showed anti-inflammatory activity | anti-inflammatory activity (literature) [3]: already been reported to have anti-inflammatory activity

O=C[C@H](O)[C@H](O)[C@H](O)COP(=O)(O)O [ribose 5-phosphate]
anti-inflammatory activity [1]: anti-inflammatory activity was observed

O=C(O)CCC(=O)O [succinic acid]
anti-inflammatory activity [1]: anti-inflammatory activity was observed
